{
  "source": "ChEMBL document CHEMBL6120963",
  "about": "“Discovery of Novel PROTAC SIRT6 Degraders with Potent Efficacy against Hepatocellular Carcinoma” (J Med Chem, 2024)",
  "key": {"[1]": {"tested_on": "SK-HEP1", "test": "Downregulation of CCPG1 expression in human SK-HEP1 cells at 2.5 uM incubated for 36 hrs in presence of MG132", "format": "functional, cell-based"}, "[2]": {"molecular_target": "T1, Protein cereblon/NAD-dependent protein deacylase sirtuin-6 (Homo sapiens, UniProt Q8N6T7+Q96SW2)", "T1 sequence (Q8N6T7 2-355 limits assumed)": "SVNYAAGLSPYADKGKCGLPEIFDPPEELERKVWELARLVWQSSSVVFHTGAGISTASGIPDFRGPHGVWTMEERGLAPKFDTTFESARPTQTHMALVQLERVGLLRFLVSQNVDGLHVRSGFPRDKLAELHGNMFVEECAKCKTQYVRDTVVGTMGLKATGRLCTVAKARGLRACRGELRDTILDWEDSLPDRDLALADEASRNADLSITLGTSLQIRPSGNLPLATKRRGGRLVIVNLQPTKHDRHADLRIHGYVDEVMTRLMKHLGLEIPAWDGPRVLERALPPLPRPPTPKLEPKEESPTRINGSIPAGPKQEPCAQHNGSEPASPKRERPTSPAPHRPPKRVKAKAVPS", "T1 sequence (Q96SW2 whole entry partner)": "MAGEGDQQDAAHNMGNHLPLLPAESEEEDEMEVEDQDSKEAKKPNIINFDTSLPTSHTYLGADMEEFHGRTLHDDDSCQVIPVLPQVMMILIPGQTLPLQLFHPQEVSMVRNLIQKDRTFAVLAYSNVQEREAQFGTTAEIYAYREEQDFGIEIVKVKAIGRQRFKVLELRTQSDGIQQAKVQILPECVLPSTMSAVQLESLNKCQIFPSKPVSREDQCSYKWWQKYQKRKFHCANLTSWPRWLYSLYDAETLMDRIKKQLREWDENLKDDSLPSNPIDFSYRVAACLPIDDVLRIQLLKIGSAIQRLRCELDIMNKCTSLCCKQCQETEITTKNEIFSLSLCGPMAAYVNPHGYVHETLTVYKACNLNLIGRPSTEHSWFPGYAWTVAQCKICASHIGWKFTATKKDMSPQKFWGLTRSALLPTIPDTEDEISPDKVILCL", "test": "PROTAC activity at CRBN/SIRT6 in human Huh-7 cells assessed as hook effect at 5 uM incubated for 36 hrs by Western blot analysis", "format": "cell-based"}, "[3]": {"test": "Toxicity in BALB/c nude mouse xenografted with human SK-HEP1 cells assessed as pathological damage in lungs at 10 mg/kg treated for 28 to 30 days under irradiation (3 Gy) by H and E staining based analysis", "format": "organism-based", "details": "in vivo, time 28-30 day"}, "[4]": {"test": "Toxicity in BALB/c nude mouse xenografted with human SK-HEP1 cells assessed as pathological damage in heart at 10 mg/kg treated for 28 to 30 days under irradiation (3 Gy) by H and E staining based analysis", "format": "organism-based", "details": "in vivo, time 28-30 day"}, "[5]": {"tested_on": "SK-HEP1", "test": "Effect of SAP18 mRNA expression in human SK-HEP1 cells at 2.5 uM incubated for 36 hrs by RNA sequencing analysis", "format": "functional, cell-based"}, "[6]": {"tested_on": "SK-HEP1", "test": "Effect on H3K56Ac expression in human SK-HEP1 cells at 0.002 to 1 uM incubated for 36 hrs by Western blot analysis", "format": "functional, cell-based", "details": "dose 0.002-1 µM"}, "[7]": {"molecular_target": "T1, Protein cereblon/NAD-dependent protein deacylase sirtuin-6", "test": "PROTAC activity at CRBN/SIRT6 in human SK-HEP1 cells assessed as increase in H3K9Ac level incubated for 36 hrs by Western blot analysis", "format": "cell-based", "details": "dose 0.002-1 µM"}, "[8]": {"molecular_target": "T1, Protein cereblon/NAD-dependent protein deacylase sirtuin-6", "test": "PROTAC activity at CRBN/SIRT6 in human SK-HEP1 cells assessed as induction of SIRT6 degradation at 1 uM incubated for 24 to 36 hrs by Western blot analysis", "format": "cell-based", "details": "time 24-36 hrs"}, "[9]": {"tested_on": "SK-HEP1", "test": "Induction of apoptosis in human SK-HEP1 cells assessed as rate of apoptotic cells at 10 uM incubated for 72 hrs by Annexin V-FITC/PI staining based flow cytometry relative to control", "format": "functional"}, "[10]": {"test": "Toxicity in BALB/c nude mouse xenografted with human SK-HEP1 cells assessed as pathological damage in kidney at 10 mg/kg treated for 28 to 30 days in presence of sorafenib by H and E staining based analysis", "format": "organism-based", "details": "in vivo, time 28-30 day"}, "[11]": {"tested_on": "SK-HEP1", "test": "Downregulation of CCPG1 expression in human SK-HEP1 cells at 2.5 uM incubated for 36 hrs", "format": "functional, cell-based"}, "[12]": {"test": "Toxicity in BALB/c nude mouse xenografted with human SK-HEP1 cells assessed as pathological damage in lungs at 10 mg/kg treated for 28 to 30 days by H and E staining based analysis", "format": "organism-based", "details": "in vivo, time 28-30 day"}, "[13]": {"molecular_target": "T1, Protein cereblon/NAD-dependent protein deacylase sirtuin-6", "test": "PROTAC activity at CRBN/SIRT6 in MLN4924-treated human SK-HEP1 cells assessed as induction of SIRT6 degradation at 2.5 uM treated for 36 hrs by Western blot analysis", "format": "cell-based"}, "[14]": {"molecular_target": "T1, Protein cereblon/NAD-dependent protein deacylase sirtuin-6", "test": "PROTAC activity at CRBN/SIRT6 in human SK-HEP1 cells assessed as hook effect upto 5 uM incubated for 36 hrs by Western blot analysis", "format": "cell-based"}, "[15]": {"test": "Toxicity in BALB/c nude mouse xenografted with human SK-HEP1 cells assessed as histopathological abnormalities in heart at 10 mg/kg treated for 28 to 30 days in presence of sorafenib by H and E staining based analysis", "format": "organism-based", "details": "in vivo, time 28-30 day"}, "[16]": {"molecular_target": "T1, Protein cereblon/NAD-dependent protein deacylase sirtuin-6", "test": "PROTAC activity at CRBN/SIRT6 in human SK-HEP1 cells assessed as induction of SIRT6 degradation at 2 to 3 uM incubated for 36 hrs by Western blot analysis", "format": "cell-based", "details": "dose 2-3 µM"}, "[17]": {"molecular_target": "T1, Protein cereblon/NAD-dependent protein deacylase sirtuin-6", "test": "PROTAC activity at CRBN/SIRT6 in human SK-HEP1 cells assessed as induction of SIRT6 degradation at 200 nM incubated for 36 hrs by In-Cell ELISA relative to control", "format": "cell-based"}, "[18]": {"molecular_target": "T1, Protein cereblon/NAD-dependent protein deacylase sirtuin-6", "test": "PROTAC activity at CRBN/SIRT6 in human SK-HEP1 cells assessed as induction of SIRT6 degradation at 2.5 uM incubated for 36 hrs by proteomic analysis", "format": "cell-based"}, "[19]": {"molecular_target": "T1, Protein cereblon/NAD-dependent protein deacylase sirtuin-6", "test": "PROTAC activity at CRBN/SIRT6 in human Huh-7 cells assessed as induction of SIRT6 degradation at 1 uM incubated for 24 hrs by Western blot analysis", "format": "cell-based"}, "[20]": {"tested_on": "SK-HEP1", "test": "Induction of cell cycle arrest in human SK-HEP1 cells assessed as accumulation at G2/M phase incubated for 72 hrs by PI staining based flow cytometry", "format": "functional", "details": "dose 2.5-10 µM"}, "[21]": {"tested_on": "SK-HEP1", "test": "Effect of FN1 mRNA expression in human SK-HEP1 cells at 2.5 uM incubated for 36 hrs by RNA sequencing analysis", "format": "functional, cell-based"}, "[22]": {"test": "Toxicity in BALB/c nude mouse xenografted with human SK-HEP1 cells assessed as body weight loss at 10 mg/kg treated for 28 to 30 days", "format": "organism-based", "details": "in vivo, time 28-30 day"}, "[23]": {"tested_on": "Huh-7", "test": "Effect on SIRT7 expression in human Huh-7 cells at 0.002 to 1 uM incubated for 36 hrs by Western blot analysis", "format": "functional, cell-based", "details": "dose 0.002-1 µM"}, "[24]": {"test": "Toxicity in BALB/c nude mouse xenografted with human SK-HEP1 cells assessed as histopathological abnormalities in lungs at 10 mg/kg treated for 28 to 30 days under irradiation (3 Gy) by H and E staining based analysis", "format": "organism-based", "details": "in vivo, time 28-30 day"}, "[25]": {"tested_on": "SK-HEP1", "test": "Effect of GBX2 mRNA expression in human SK-HEP1 cells at 2.5 uM incubated for 36 hrs by RNA sequencing analysis", "format": "functional, cell-based"}, "[26]": {"tested_on": "SK-HEP1", "test": "Inhibition of colony formation in human SK-HEP1 cells at 2.5 uM incubated for 10 to 14 days with replacement of medium containing compounds on every 3 days combined with irradiation (3 Gy) by crystal violet staining based analysis", "format": "functional, cell-based", "details": "time 10-14 day"}, "[27]": {"tested_on": "SK-HEP1", "test": "Effect on SIRT7 expression in human SK-HEP1 cells at 0.002 to 1 uM incubated for 36 hrs by Western blot analysis", "format": "functional, cell-based", "details": "dose 0.002-1 µM"}, "[28]": {"test": "Toxicity in BALB/c nude mouse xenografted with human SK-HEP1 cells assessed as pathological damage in liver at 10 mg/kg treated for 28 to 30 days under irradiation (3 Gy) by H and E staining based analysis", "format": "organism-based", "details": "in vivo, time 28-30 day"}, "[29]": {"tested_on": "SK-HEP1", "test": "Effect of SIRT6 mRNA expression in human SK-HEP1 cells at 2.5 uM incubated for 36 hrs by RNA sequencing analysis", "format": "functional, cell-based"}, "[30]": {"molecular_target": "T1, Protein cereblon/NAD-dependent protein deacylase sirtuin-6", "test": "PROTAC activity at CRBN/SIRT6 in human U2OS cells with DNA repair assessed as inhibition of CHD4 loading onto chromatin incubated for 36 hrs by FACS analysis", "format": "cell-based"}, "[31]": {"molecular_target": "T1, Protein cereblon/NAD-dependent protein deacylase sirtuin-6", "test": "PROTAC activity at CRBN/SIRT6 in human U2OS cells expressing EJ5 assessed as inhibition of SNF2H loading onto chromatin incubated for 36 hrs by FACS analysis", "format": "cell-based"}, "[32]": {"molecular_target": "T1, Protein cereblon/NAD-dependent protein deacylase sirtuin-6", "test": "PROTAC activity at CRBN/SIRT6 in human SK-HEP1 cells assessed as disruption of CHD4 recruitment to DSB sites at 2.5 uM incubated for 36 hrs followed by irradiation (10 Gy) treatment for 4 hrs by Western blot analysis", "format": "cell-based", "details": "time 40.0 hrs"}, "[33]": {"tested_on": "SK-HEP1", "test": "Effect of genes related to mitochondrial matrix in human SK-HEP1 cells at 2.5 uM incubated for 36 hrs by GSEA analysis", "format": "functional, cell-based"}, "[34]": {"tested_on": "SK-HEP1", "test": "Inhibition of cell proliferation of human SK-HEP1 cells xenografted in BALB/c nude mouse at 10 mg/kg treated for 28 to 30 days under irradiation (3 Gy)", "format": "functional, organism-based", "details": "time 28-30 day"}},
  "note": "Activity calls are given as the source filed them. No cut-off for these calls is given here.",
  "data": [
    {"smiles": "Nc1cc(N2CCN(CC3CCN(c4cc5c(cc4F)C(=O)N(C4CCC(=O)NC4=O)C5=O)CC3)CC2)ccc1[N+](=O)[O-]", "note": "(stereo not given)", "values": [
      {"measurement": "Activity", "setting": "[1]", "value": "inactive"},
      {"measurement": "Activity", "setting": "[2]", "value": "Active"},
      {"measurement": "Activity", "setting": "[3]", "value": "Non-toxic"},
      {"measurement": "Activity", "setting": "[4]", "value": "Non-toxic"},
      {"measurement": "Activity", "setting": "[5]", "value": "Active"},
      {"measurement": "Activity", "setting": "[6]", "value": "No effect"},
      {"measurement": "Activity", "setting": "[7]", "value": "Dose-dependent-effect"},
      {"measurement": "Activity", "setting": "[8]", "value": "Active; Reached A Plateau After 36 Hrs Of Treatment, But A Dramatic Reduction Observed"},
      {"measurement": "Activity", "setting": "[9]", "value": "Active"},
      {"measurement": "Activity", "setting": "[9]; record 2", "value": "<=60%"},
      {"measurement": "Activity", "setting": "[10]", "value": "Non-toxic"},
      {"measurement": "Activity", "setting": "[11]", "value": "Active"},
      {"measurement": "Activity", "setting": "[12]", "value": "Non-toxic"},
      {"measurement": "Activity", "setting": "[13]", "value": "inactive"},
      {"measurement": "Activity", "setting": "[14]", "value": "inactive"},
      {"measurement": "Activity", "setting": "[15]", "value": "Non-toxic"},
      {"measurement": "Activity", "setting": "[16]", "value": "Active"},
      {"measurement": "Activity", "setting": "[17]", "value": 67.7, "unit": "%"},
      {"measurement": "Activity", "setting": "[18]", "value": "Active"},
      {"measurement": "Activity", "setting": "[19]", "value": "Active; Reached A Plateau After 36 Hrs Of Treatment"},
      {"measurement": "Activity", "setting": "[20]", "value": "Dose-dependent-effect"},
      {"measurement": "Activity", "setting": "[21]", "value": "Active"},
      {"measurement": "Activity", "setting": "[22]", "value": "Non-toxic"},
      {"measurement": "Activity", "setting": "[23]", "value": "No effect"},
      {"measurement": "Activity", "setting": "[24]", "value": "Non-toxic"},
      {"measurement": "Activity", "setting": "[25]", "value": "Active"},
      {"measurement": "inhibition", "setting": "[26]", "value": "Active; Exhibited Superior To Compound Alone"},
      {"measurement": "Activity", "setting": "[27]", "value": "No effect"},
      {"measurement": "Activity", "setting": "[28]", "value": "Non-toxic"},
      {"measurement": "Activity", "setting": "[29]", "value": "No effect; The Mrna Level Did Not Markedly Change"},
      {"measurement": "inhibition", "setting": "[30]", "value": "Active; Results In Decrease In Hr And Nhej Efficiencies"},
      {"measurement": "inhibition", "setting": "[31]", "value": "Active; Results In Decrease In Hr And Nhej Efficiencies"},
      {"measurement": "Activity", "setting": "[32]", "value": "Active"},
      {"measurement": "Activity", "setting": "[33]", "value": "Active"},
      {"measurement": "inhibition", "setting": "[34]", "value": "Active"}
    ]}
  ]
}
